The test has as its target T1, human V1a receptor (Homo sapiens, UniProt P37288).
T1 construct: expressed in transfected cells; host or cells: HEK293 cells, transiently transfected; membrane preparation
The test is described as follows: human V1a receptor binding, 3H-Vasopressin SPA on membranes of transfected HEK293 cells. The note with it: displacement of 4 nM 3H-Vasopressin; HEK293 cell membranes; 1 h at room temperature; Ki from IC50 by the Cheng-Prussoff equation. The procedure:
The human V1a receptor was cloned by RT-PCR from total human liver RNA. The coding sequence was subcloned in an expression vector after sequencing to confirm the identity of the amplified sequence. […] Cell membranes were prepared from HEK293 cells transiently transfected with the expression vector and grown in 20 liter fermenters with the following protocol.
50 g of cells are resuspended in 30 ml freshly prepared ice cold Lysis buffer (50 mM HEPES, 1 mM EDTA, 10 mM MgCl2 adjusted to pH=7.4+ complete cocktail of protease inhibitor (Roche Diagnostics)). Homogenized with Polytron for 1 min and sonicated on ice for 2×2 minutes at 80% intensity (Vibracell sonicator). The preparation is centrifuged 20 min at 500 g at 4° C., the pellet is discarded, and the supernatant centrifuged 1 hour at 43,000 g at 4° C. (19,000 rpm). The pellet is resuspended in 12.5 ml Lysis buffer+12.5 ml Sucrose 20% and homogenized using a Polytron for 1-2 min. The protein concentration is determined by the Bradford method, and aliquots are stored at −80° C. until use. For binding studies 60 mg Yttrium silicate SPA beads (Amersham) are mixed with an aliquot of membrane in binding buffer (50 mM Tris, 120 mM NaCl, 5 mM, KCl, 2 mM CaCl2, 10 mM MgCl2) for 15 minutes with mixing. 50 ul of bead/membrane mixture is then added to each well of a 96 well plate, followed by 50 ul of 4 nM 3H-Vasopressin (American Radiolabeled Chemicals). For total binding measurement, 100 ul of binding buffer are added to the respective wells, for non-specific binding 100 ul of […] cold vasopressin and for compound testing 100 ul of a serial dilution of each compound in 2% DMSO. The plate is incubated 1 h at room temperature, centrifuged 1 min at 1000 g and counted on a Packard Top-Count. Non-specific binding counts are subtracted from each well, and data is normalized to the maximum specific binding set at 100%. To calculate an IC 50, the curve is fitted using a non-linear regression model (XLfit), and the Ki is calculated using the Cheng-Prussoff equation.

T1 sequence (P37288 whole entry): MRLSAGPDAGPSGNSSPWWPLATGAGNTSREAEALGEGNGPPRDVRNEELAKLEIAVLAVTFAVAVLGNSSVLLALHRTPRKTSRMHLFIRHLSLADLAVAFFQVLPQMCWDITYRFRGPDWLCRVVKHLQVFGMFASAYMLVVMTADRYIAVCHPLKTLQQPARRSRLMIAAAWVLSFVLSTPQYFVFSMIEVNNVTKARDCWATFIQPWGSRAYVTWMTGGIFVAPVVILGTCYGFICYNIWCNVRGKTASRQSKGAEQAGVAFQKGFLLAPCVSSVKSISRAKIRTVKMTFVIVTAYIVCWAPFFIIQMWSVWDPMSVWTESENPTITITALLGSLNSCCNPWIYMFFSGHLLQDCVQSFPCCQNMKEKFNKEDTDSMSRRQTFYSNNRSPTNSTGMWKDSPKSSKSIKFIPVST

Usually Ki stands for the dissociation constant of the complex between target and ligand, obtained from inhibition or displacement. As for `Cc1c(C(=O)N2CCC(n3c(Cl)nc4ccccc43)CC2)c2ccccc2n1Cc1ccccc1` [Example 1, (1-Benzyl-2-methyl-1H-indol-3-yl)-[4-(2-chloro-benzoimidazol-1-yl)-piperidin-1-yl]-methanone], the Ki came to 45 nM.
The compound `Cc1c(C(=O)N2CCC(n3c(N4CCOCC4)nc4ccccc43)CC2)c2ccccc2n1Cc1ccccc1` [Example 3, (1-Benzyl-2-methyl-1H-indol-3-yl)-[4-(2-morpholin-4-yl-benzoimidazol-1-yl)-piperidin-1-yl]-methanone] yielded a Ki of 18 nM.
As for `Cc1c(C(=O)N2CCC(n3c(N4CCCCC4)nc4ccccc43)CC2)c2ccccc2n1Cc1ccccc1` [Example 4, (1-Benzyl-2-methyl-1H-indol-3-yl)-[4-(2-piperidin-1-yl-benzoimidazol-1-yl)-piperidin-1-yl]-methanone], affinity was put at a Ki of 6 nM.
Consider `O=C(c1cn(Cc2ccccc2)c2ccccc12)N1CCC(n2c(=O)[nH]c3ccccc32)CC1` [Example 8, 1-[1-(1-Benzyl-1H-indole-3-carbonyl)-piperidin-4-yl]-1,3-dihydro-benzoimidazol-2-one], for which the Ki was 13 nM.
`Cc1c(C(=O)N2CCC(n3c(=O)n(C)c4ccccc43)CC2)c2ccccc2n1Cc1ccccc1` [Example 9, 1-{1-[(1-benzyl-2-methyl-1H-indol-3-yl)carbonyl]piperidin-4-yl}-3-methyl-1,3-dihydro-2H-benzimidazol-2-one] gave a Ki of 13 nM.
The value for `Cc1[nH]c2ccccc2c1C(=O)N1CCC(n2c(=O)[nH]c3ccccc32)CC1` [Example 10, 1-[1-(2-Methyl-1H-indole-3-carbonyl)-piperidin-4-yl]-1,3-dihydro-benzoimidazol-2-one] was 39 nM.
Compound `COc1ccc2c(C(=O)N3CCC(n4c(=O)[nH]c5ccccc54)CC3)cn(C(C)C)c2c1` [Example 11, 1-[1-(1-Isopropyl-6-methoxy-1H-indole-3-carbonyl)-piperidin-4-yl]-1,3-dihydro-benzoimidazol-2-one] gave a Ki of 20 nM.
The value for `CC(C)n1cc(C(=O)N2CCC(n3c(=O)[nH]c4ccccc43)CC2)c2ccc(F)cc21` [Example 12, 1-[1-(6-Fluoro-1-isopropyl-1H-indole-3-carbonyl)-piperidin-4-yl]-1,3-dihydro-benzoimidazol-2-one] was 13 nM; that for `CC(C)n1cc(C(=O)N2CCC(n3c(=O)[nH]c4ccccc43)CC2)c2ccc(Cl)cc21` [Example 13, 1-[1-(6-Chloro-1-isopropyl-1H-indole-3-carbonyl)-piperidin-4-yl]-1,3-dihydro-benzoimidazol-2-one] was 2 nM.
On to `CC(C)n1cc(C(=O)N2CCC(n3c(=O)[nH]c4ccccc43)CC2)c2ccccc21` [Example 14, 1-[1-(1-Isopropyl-1H-indole-3-carbonyl)-piperidin-4-yl]-1,3-dihydro-benzoimidazol-2-one], for which the Ki turned out to be 32 nM.
As to `O=C(c1c[nH]c2cc(Cl)ccc12)N1CCC(n2c(=O)[nH]c3ccccc32)CC1` [Example 18, 1-[1-(6-Chloro-1H-indole-3-carbonyl)-piperidin-4-yl]-1,3-dihydro-benzoimidazol-2-one], the Ki amounted to 7 nM.
Regarding `O=C(c1c[nH]c2cc(Cl)c(F)cc12)N1CCC(n2c(=O)[nH]c3ccccc32)CC1` [Example 19, 1-[1-(6-Chloro-5-fluoro-1H-indole-3-carbonyl)-piperidin-4-yl]-1,3-dihydro-benzoimidazol-2-one], the Ki was 5 nM.
Turning to `Cc1c(C(=O)N2CCC(n3c(=O)n(CCN(C)C)c4ccccc43)CC2)c2ccccc2n1Cc1ccccc1` [Example 20, 1-[1-(1-Benzyl-2-methyl-1H-indole-3-carbonyl)-piperidin-4-yl]-3-(2-dimethylamino-ethyl)-1,3-dihydro-benzoimidazol-2-one], the inhibition constant Ki worked out at 5 nM.
Regarding `N#CCn1cc(C(=O)N2CCC(n3c(=O)[nH]c4ccccc43)CC2)c2ccc(Cl)cc21` [Example 21, {6-Chloro-3-[4-(2-oxo-2,3-dihydro-benzoimidazol-1-yl)-piperidine-1-carbonyl]-indol-1-yl}-acetonitrile], the affinity, expressed as Ki, was 6 nM.
Regarding `CCC(C)C(=O)c1[nH]c2ccccc2c1C(=O)N1CCC(n2c(=O)[nH]c3ccccc32)CC1` (stereo not shown) [Example 22, 1-{1-[2-(2-Methyl-butyryl)-1H-indole-3-carbonyl]-piperidin-4-yl}-1,3-dihydro-benzoimidazol-2-one], the affinity corresponds to a Ki of 11 nM.
With `Cc1c(C(=O)N2CCC(n3c(=O)[nH]c4ccccc43)CC2)c2ccccc2n1Cc1ccccc1` [Example 23, 1-[1-(1-Benzyl-2-methyl-1H-indole-3-carbonyl)-piperidin-4-yl]-1,3-dihydro-benzoimidazol-2-one], the affinity corresponds to a Ki of 6 nM.
Turning to `O=C(c1cn(Cc2ccccc2)c2cc(Cl)ccc12)N1CCC(n2c(=O)[nH]c3ccccc32)CC1` [Example 24, 1-[1-(1-Benzyl-6-chloro-1H-indole-3-carbonyl)-piperidin-4-yl]-1,3-dihydro-benzoimidazol-2-one], affinity was put at a Ki of 2 nM.
The same measure for `O=C(c1cn(CC2CCCCC2)c2ccccc12)N1CCC(n2c(=O)[nH]c3ccccc32)CC1` [Example 25, 1-[1-(1-Cyclohexylmethyl-1H-indole-3-carbonyl)-piperidin-4-yl]-1,3-dihydro-benzoimidazol-2-one]: 20 nM.
On to `CN(C)CCn1cc(C(=O)N2CCC(n3c(=O)[nH]c4ccccc43)CC2)c2ccc(Cl)cc21` [Example 26, 1-{1-[6-Chloro-1-(2-dimethylamino-ethyl)-1H-indole-3-carbonyl]-piperidin-4-yl}-1,3-dihydro-benzoimidazol-2-one], for which the Ki is 0.7 nM.
The same measure for `CN(C)CCn1c(=O)n(C2CCN(C(=O)c3c[nH]c4cc(Cl)ccc34)CC2)c2ccccc21` [Example 27, 1-[1-(6-Chloro-1H-indole-3-carbonyl)-piperidin-4-yl]-3-(2-dimethylamino-ethyl)-1,3-dihydro-benzoimidazol-2-one]: 5 nM; for `O=C(c1cn(C(=O)c2cccc(F)c2)c2cc(Cl)ccc12)N1CCC(n2c(=O)[nH]c3ccccc32)CC1` [Example 28, 1-{1-[6-Chloro-1-(3-fluoro-benzoyl)-1H-indole-3-carbonyl]-piperidin-4-yl}-1,3-dihydro-benzoimidazol-2-one]: 12 nM.
Take `O=C(Cn1cc(C(=O)N2CCC(n3c(=O)[nH]c4ccccc43)CC2)c2ccc(Cl)cc21)c1cccc(F)c1` [Example 29, 1-(1-{6-Chloro-1-[2-(3-fluoro-phenyl)-2-oxo-ethyl]-1H-indole-3-carbonyl}-piperidin-4-yl)-1,3-dihydro-benzoimidazol-2-one]: the Ki amounted to 22 nM.
For `O=C(c1cn(C(=O)c2ccccc2F)c2cc(Cl)ccc12)N1CCC(n2c(=O)[nH]c3ccccc32)CC1` [Example 30, 1-{1-[6-Chloro-1-(2-fluoro-benzoyl)-1H-indole-3-carbonyl]-piperidin-4-yl}-1,3-dihydro-benzoimidazol-2-one], the Ki is 35 nM.
Regarding `O=C(c1cn(C(=O)c2cccc(F)c2F)c2cc(Cl)ccc12)N1CCC(n2c(=O)[nH]c3ccccc32)CC1` [Example 31, 1-{1-[6-Chloro-1-(2,3-difluoro-benzoyl)-1H-indole-3-carbonyl]-piperidin-4-yl}-1,3-dihydro-benzoimidazol-2-one], the Ki came to 25 nM.
In the case of `O=C(c1cn(Cc2cc(F)cc(F)c2)c2cc(Cl)ccc12)N1CCC(n2c(=O)[nH]c3ccccc32)CC1` [Example 33, 1-{1-[6-Chloro-1-(3,5-difluoro-benzyl)-1H-indole-3-carbonyl]-piperidin-4-yl}-1,3-dihydro-benzoimidazol-2-one], the Ki came out at 15 nM.
The same measure for `O=C(c1cn(Cc2cccc(F)c2)c2cc(Cl)ccc12)N1CCC(n2c(=O)[nH]c3ccccc32)CC1` [Example 34, 1-{1-[6-Chloro-1-(3-fluoro-benzyl)-1H-indole-3-carbonyl]-piperidin-4-yl}-1,3-dihydro-benzoimidazol-2-one]: 9 nM.
`O=C(Cn1cc(C(=O)N2CCC(n3c(=O)[nH]c4ccccc43)CC2)c2ccc(Cl)cc21)c1cc(F)ccc1F` [Example 35, 1-(1-{6-Chloro-1-[2-(2,5-difluoro-phenyl)-2-oxo-ethyl]-1H-indole-3-carbonyl}-piperidin-4-yl)-1,3-dihydro-benzoimidazol-2-one] yielded a Ki of 5 nM.
The compound `O=C(Cn1cc(C(=O)N2CCC(n3c(=O)[nH]c4ccccc43)CC2)c2ccc(Cl)cc21)c1ccc(F)cc1F` [Example 36, 1-(1-{6-Chloro-1-[2-(2,4-difluoro-phenyl)-2-oxo-ethyl]-1H-indole-3-carbonyl}-piperidin-4-yl)-1,3-dihydro-benzoimidazol-2-one] registered a Ki of 6 nM.

The values are drawn from patent US7803815B2, “Indol-3-yl-corbonyl-piperidin-benzoimidazol derivatives” (Hoffmann-La Roche Inc., priority 2005, dated 2010).
